What was measured:
[1] = molecular target: T1, CCK receptor (pancreas) (Rattus norvegicus, UniProt P30551); test: CCK Receptor Binding (Pancreas), inhibition of specific 125I-CCK-8 binding; design: species or system rat (male Sprague-Dawley); details: rat pancreas membranes; 50 pM 125I-CCK-8; 25° C., 2 hours; pH 6.5; read-out: IC50 125I-CCK Pancreas
T1 construct: The whole pancreas was dissected free of fat tissue and was homogenized; from tissue; host or cells: whole pancreas of male Sprague-Dawley rats, homogenate membranes
T1 sequence (P30551 1-444): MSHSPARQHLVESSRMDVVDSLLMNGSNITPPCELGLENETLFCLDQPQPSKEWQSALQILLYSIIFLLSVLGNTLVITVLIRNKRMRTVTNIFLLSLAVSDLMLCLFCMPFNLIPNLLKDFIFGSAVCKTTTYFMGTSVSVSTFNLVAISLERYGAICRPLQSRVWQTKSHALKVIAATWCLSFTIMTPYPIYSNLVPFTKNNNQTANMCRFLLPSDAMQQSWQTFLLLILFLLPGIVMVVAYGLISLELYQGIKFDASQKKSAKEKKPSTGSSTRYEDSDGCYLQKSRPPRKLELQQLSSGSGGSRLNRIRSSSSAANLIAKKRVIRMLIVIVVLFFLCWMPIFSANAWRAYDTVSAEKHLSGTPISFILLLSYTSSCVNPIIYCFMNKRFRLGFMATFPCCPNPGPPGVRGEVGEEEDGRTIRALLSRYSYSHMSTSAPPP
Experimental: 1. CCK Receptor Binding (Pancreas)
CCK-8 sulphated was radiolabelled with ^125 I-Bolton Hunter reagent (2000 Ci/mmole). Receptor binding was performed according to Chang and Lotti (Proc. Natl. Acad. Sci. 83, 4923-4926, 1986) with minor modifications.
Male Sprague-Dawley rats (150-200 g) were sacrificed by decapitation. The whole pancreas was dissected free of fat tissue and was homogenized in 25 volumes of ice-cold 10 mM N-2-hydroxyethyl-piperazine-N'-2-ethane sulphonic acid (HEPES) buffer with 0.1% soya bean trypsin inhibitor (pH 7.4 at 25° C.) with a Kinematica Polytron. The homogenates were centrifuged at 47,800 g for 10 min. Pellets were resuspended in 10 volumes of binding assay buffer (20 mM (HEPES)), 1 mM ethylene glycol-bis-(β-aminoethylether-N,N'-tetraacetic acid) (EGTA), 5 mM MgCl2, 150 mM NaCl, bacitracin 0.25 mg/ml, soya bean trypsin inhibitor 0.1 mg/ml, and bovine serum albumin 2 mg/ml pH 6.5 at 25° C.) using a Teflon (trademark) homogenizer, 15 strokes at 500 rpm. The homogenate was further diluted in binding assay buffer to give a final concentration of 0.5 mg original wet weight/1 ml buffer. […] All assays were run in duplicate. The reaction mixtures were incubated at 25° C. for 2 hours and the reaction terminated by rapid filtration (Brandell 24 well cell harvester) over Whatman GF/C filters, washing 3×4 mls with ice-cold 100 Mm NaCl. The radioactivity on the filters was counted with a LKB gamma counter.

[2] = molecular target: T2, CCK receptor (brain) (Cavia porcellus, UniProt H0VZC5); test: CCK Receptor Binding (Brain), inhibition of specific 125I-CCK-8 binding; design: species or system guinea pig (male Hartley); details: guinea pig cortex membranes; 50 pM 125I-CCK-8; 25° C., 2 hours; pH 6.5; read-out: IC50 125I-CCK Brain
T2 construct: the cortex was removed and homogenized in 25 mL ice-cold 0.32M sucrose; from tissue; host or cells: cortex of male Hartley guinea pigs, P2 membranes
T2 sequence (H0VZC5 1-426): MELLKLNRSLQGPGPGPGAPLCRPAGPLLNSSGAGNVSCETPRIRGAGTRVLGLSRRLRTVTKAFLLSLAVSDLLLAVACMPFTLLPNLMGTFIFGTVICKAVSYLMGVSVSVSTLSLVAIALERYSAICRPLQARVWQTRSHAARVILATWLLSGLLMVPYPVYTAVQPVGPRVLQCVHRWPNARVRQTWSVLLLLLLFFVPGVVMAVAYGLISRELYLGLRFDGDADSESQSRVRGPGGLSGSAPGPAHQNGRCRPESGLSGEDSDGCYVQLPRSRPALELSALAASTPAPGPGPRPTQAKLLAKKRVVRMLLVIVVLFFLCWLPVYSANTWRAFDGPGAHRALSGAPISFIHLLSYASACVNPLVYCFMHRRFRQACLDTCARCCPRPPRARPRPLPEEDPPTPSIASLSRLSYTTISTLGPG
Experimental: 2. CCK Receptor Binding (Brain)
CCK-8 sulphated was radiolabelled and the binding was performed according to the description for the pancreas method with minor modifications.
Male Hartley guinea pigs (300-500 g) were sacrificed by decapitation and the cortex was removed and homogenized in 25 mL ice-cold 0.32M sucrose. The homogenates were centrifuged at 1000 g for 10 minutes and the resulting supernatant was recentrifuged at 20,000 g for 20 minutes. The P2 pellet was resuspended in binding assay buffer (20mM HEPES, 5 mM MgCl2, 0.25 mg/ml bacitracin, 1 mM EGTA pH 6.5 at 25° C.), using a Teflon (trademark) homogenizer (5 strokes at 500 rpm) to give a final concentration of 10 mg original wet weight/1.2 ml buffer. […] All assays were run in duplicate. The reaction mixtures were incubated at 25° C. for 2 hours and then the reaction was terminated by rapid filtration (Brandell 24 well cell harvester) on Whatman GF/C filters with 3×5 ml washes of cold 100 mM NaCl. The radioactivity on the filters was counted with a LKB gamma counter.

- IC50 [1]: 400 nM
- IC50 [2]: 0.1 nM
Compound: CN1C(=O)[C@H](NC(=O)Nc2cccc(N(C)c3nnn[nH]3)c2)N=C(C2CCCCC2)c2ccccc21 [Example 4, (+)-N-[3(R)-5-Cyclohexyl-2,3-dihydro-1-methyl-2-oxo-1H-1,4-benzodiazepin-3-yl]-N'-[3-{N-methyl-N-(tetrazol-5-yl)amino}phenyl]urea]
